Values of other authors in article PMC5848258 (Clinical Infectious Diseases: An Official Publication of …, 2017).

Settings: cited from earlier work

In the case of C=C(C)[C@@H]1CC[C@]2(C(=O)O)CC[C@]3(C)[C@H](CC[C@@H]4[C@@]5(C)CC[C@H](OC(=O)CC(C)(C)C(=O)O)C(C)(C)[C@@H]5CC[C@]43C)[C@@H]12 [BVM, 3-o-(3’,3’-dimethylsuccinyl)betulinic acid, reference compound], the Protein binding is given as over 99%.
